Results as given in US20250099952A1, “MICROFLUIDIC DEVICE AND USES THEREOF” (CASE WESTERN RESERVE UNIVERSITY, priority 2019, published 2025).

What was measured:
RBCs from healthy donors = assay: Occlusion Chip microfluidic assessment of RBC deformability (RBC Occlusion Index) after chemical treatment; type: cell-based, human; conditions: for RBC Occlusion Index (ROI), mean±SEM: directly suspended in PBS, N=4
Method: Whole blood samples were centrifuged at 500×g for 5 min at 4° C., plasma was removed, and the RBCs were washed twice in PBS, and re-suspended at a 20% hematocrit value. The Occlusion Chip was placed on an Olympus IX83 inverted motorized microscope stage for high-resolution imaging. The RBC samples were perfused through the microchannel under constant pressure for 20 min (FIGS. 12A & B). Non-retained RBCs were rinsed away by injecting PBS into the microchannel under the same pressure. […] Phase contrast, bright field, and fluorescent images were recorded at 20× using the Olympus Cell Sense live imaging software (excitation/emission wavelength, 488/505-580 for Green Fluorescent Protein, GFP). Post processing of recorded images and cell counting were performed using Adobe Photoshop (San Jose, CA). Oxygen tension was controlled in hypoxia experiments using a custom designed gas exchange setup as described in Supplementary Materials. Scanning electron microscopy was performed on the micropillars and RBCs.
Glutaraldehyde, a non-specific protein cross-linker, and diamide, a thiol group oxidant inducing disulfide cross-linking of band 3, are used to stiffen RBCs in order to mimic impaired RBC deformability, seen in pathological conditions. Precisely controlled exposure of RBC to graded concentrations of glutaraldehyde or diamide was utilized to verify Occlusion Chip functionality. RBCs from healthy donors exposed to graded concentrations, 0.00% (as control), 0.02%, 0.04%, and 0.08% (w/v), of glutaraldehyde were mixed with untreated normal RBCs to achieve 1% treated cells and were suspended in PBS for microfluidic assessment. RBCs exposed to same graded concentrations of diamide were directly suspended in PBS for microfluidic assessment. […] The retained RBCs were fluorescently labeled with anti-glycophorin A (CD235a, Abcam, Cambridge, MA) antibodies. […] At the end of the test, numbers of occlusions induced by poorly-deformable RBCs within each micropillar array were quantified (FIGS. 7D&E). […] To assess the overall RBC deformability of specific samples, we assigned different weight to the occlusion events quantitated within different micropillar arrays, and defined a new parameter ‘RBC Occlusion Index’ (ROI) using the following equation,
Mercury is a toxic heavy metal that binds to RBC membranes with high affinity and results in RBC hemolysis. Mercuric ions induce membrane conformational changes and impair RBC deformability.

[1] = system: RBCs in whole venous blood; assay: Fibrinogen-accelerated RBC sedimentation in whole blood; type: cell-based, human; conditions: fibrinogen stock 40 mg/ml mixed with whole blood 1:9 to 1:1 (v/v), monitored over 20 min, compared to PBS
Method: The experiments are performed immediately after blood draw through […]. We examine the effect of additional fibrinogen on RBC sedimentation, which has been reported to have a marked correlation between the concentration of and the erythrocyte sedimentation rate.
Whole venous blood was drawn with anticoagulated EDTA into a 1.5 ml microcentrifuge tube. Fibrinogen stock solution with the concentration of 40 mg/ml (in PBS) was mixed with whole blood at ratios of 1:9, 1:4, 1:2, and 1:1 (v/v) and the final volume of the mixtures was adjusted to 500 μl. Control groups were mixtures of whole blood and PBS at the same volume ratios. The sedimentation of RBCs was monitored over a period of 20 minutes. […] In addition, fibrinogen mediated RBC sedimentation became stable when it approached 20 min, and no more noticeable difference was observed between blood samples with different concentrations of fibrinogen. Therefore, the 1:9 fibrinogen and whole blood mixture (4 mg/ml final fibrinogen concentration) was selected based on a cost-effective point of view, from which 150 μl plasma was collected for further processing.

Q: With CN(C)C(=O)/N=N/C(=O)N(C)C [diamide] as the compound, how does the “RBC Occlusion Index (ROI), mean±SEM” value (RBCs from healthy donors; RBCs exposed to 0.02% diamide) read?
A: 329.9±37.2

Q: What about the “RBC Occlusion Index (ROI), mean±SEM” value (RBCs from healthy donors; RBCs exposed to 0.04% diamide) of the same compound?
A: 459.8±71.6

Q: What about the “RBC Occlusion Index (ROI), mean±SEM” value (RBCs from healthy donors; RBCs exposed to 0.08% diamide) of the same compound?
A: 645.1±87.6

Q: What about the “effect on RBC stiffness and membrane morphology” value (RBCs from healthy donors; diamide exposure, micropillar device 20 μm to 4 μm) of the same compound?
A: induce structural stiffening of RBCs without interrupting the cell membrane morphology

Q: O=CCCCC=O [glutaraldehyde] was tested. Which “increase in total occlusion level compared to the control” value (RBCs from healthy donors; 0.08% (w/v) glutaraldehyde) did it give?
A: more than 16 fold

Q: Which “RBC sedimentation (visual, words)” value [1] does the source give for fibrinogen here?
A: significantly accelerated the sedimentation of RBCs compared to PBS

Q: With mercuric ion as the compound, how does the “effect on RBC deformability” value (RBCs from healthy donors) read?
A: moderately reduces RBC deformability
